# Molecular target: T1, NBD1 (Homo sapiens, UniProt P13569)
# T1 construct: Purified recombinant NBD1 was produced using previously described methods; made in house
# Assay: Aggregation analysis using differential static light scattering (DSLS), thermal stability of NBD1 (ΔTagg)
# Type: binding
# Conditions: ΔTagg versus DMSO control, NBD1 0.2 mg/ml
# Procedure, shortened: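 Thermal aggregation of purified NBD1 was followed by static light scattering during a 1° C./min ramp to 70° C. Protein was at 0.2 mg/ml with 2 mM ATP at pH7.6. Each compound's Tagg was referenced to DMSO controls.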
# T1 sequence (P13569 423-646 limits assumed): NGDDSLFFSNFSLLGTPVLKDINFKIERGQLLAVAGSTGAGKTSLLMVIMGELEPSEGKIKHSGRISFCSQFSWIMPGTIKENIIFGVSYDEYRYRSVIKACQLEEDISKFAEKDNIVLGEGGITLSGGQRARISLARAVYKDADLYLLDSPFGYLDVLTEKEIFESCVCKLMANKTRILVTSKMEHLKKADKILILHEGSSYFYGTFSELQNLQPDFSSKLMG
row,SMILES,DSLS 3D (100 μM ΔT)
1,"C[C@@H](Cc1cccc([C@@]2(C)CCCC(C)(C)CS(=O)(=O)CCc3c(c(F)c(F)c4[nH]ccc34)Cc3ccnc(c3)-c3nc2nn3C)c1)C(=O)O [Compound 304, (2S)-3-[3-[(6R)-21,22-Difluoro-3,6,10,10-tetramethyl-12,12-dioxo-12λ6-thia-3,4,19,28,30-pentazapentacyclo[23.3.1.12,5.015,23.016,20]triaconta-1(29),2(30),4,15,17,20,22,25,27-nonaen-6-yl]phenyl]-2-methyl-propanoic Acid]",B (a value above 5 °C and less than or equal to 10 °C is marked “B”)
2,"C[C@H](Cc1cccc([C@@]2(C)CCCC(C)(C)CS(=O)(=O)CCc3c(c(F)c(F)c4[nH]ccc34)Cc3ccnc(c3)-c3nc2nn3C)c1)C(=O)O [Compound 305, (2R)-3-[3-[(6R)-21,22-Difluoro-3,6,10,10-tetramethyl-12,12-dioxo-12λ6-thia-3,4,19,28,30-pentazapentacyclo[23.3.1.12,5.015,23.016,20]triaconta-1(29),2(30),4,15,17,20,22,25,27-nonaen-6-yl]phenyl]-2-methyl-propanoic acid]",B (a value above 5 °C and less than or equal to 10 °C is marked “B”)
3,"Cn1nc2nc1-c1cc(ccn1)Cc1c(F)c(F)c3[nH]ccc3c1CCS(=O)(=O)CC(C)(C)CCC[C@]2(C)c1cccc(CC2(C(=O)O)CC2)c1 [Compound 306, 1-[[3-[(6R)-21,22-Difluoro-3,6,10,10-tetramethyl-12,12-dioxo-12λ6-thia-3,4,19,28,30-pentazapentacyclo[23.3.1.12,5.015,23.016,20]triaconta-1(29),2(30),4,15,17,20,22,25,27-nonaen-6-yl]phenyl]methyl]cyclopropanecarboxylic Acid]",A (an ΔTagg value less than or equal to 5 °C is marked “A”)
4,"Cn1nc2nc1-c1cc(ccn1)Cc1c(F)c(F)c3[nH]ccc3c1CCS(=O)(=O)CC(C)(C)CCC[C@]2(C)c1cccc(CC(C)(C)C(=O)O)c1 [Compound 307, 3-[3-[(6R)-21,22-Difluoro-3,6,10,10-tetramethyl-12,12-dioxo-12λ6-thia-3,4,19,28,30-pentazapentacyclo[23.3.1.12,5.015,23.016,20]triaconta-1(29),2(30),4,15,17,20,22,25,27-nonaen-6-yl]phenyl]-2,2-dimethyl-propanoic Acid]",A (an ΔTagg value less than or equal to 5 °C is marked “A”)
5,"Cn1nc2nc1-c1cc(ccn1)Sc1c(F)c(F)c3[nH]ccc3c1CCS(=O)(=O)CC(C)(C)CCC[C@]2(C)c1cccc(CC2(C(=O)O)CC2)c1 [Compound 308, 1-[[3-[(6R)-21,22-difluoro-3,6,10,10-tetramethyl-12,12-dioxo-12λ6,24-dithia-3,4,19,28,30-pentazapentacyclo[23.3.1.12,5.015,23.016,20]triaconta-1(29),2(30),4,15,17,20,22,25,27-nonaen-6-yl]phenyl]methyl]cyclopropanecarboxylic acid]",B (a value above 5 °C and less than or equal to 10 °C is marked “B”)
6,"Cn1nc2nc1-c1cc(ccn1)S(=O)(=O)c1c(F)c(F)c3[nH]ccc3c1CCS(=O)(=O)CC(C)(C)CCC[C@]2(C)c1cccc(CC2(C(=O)O)CC2)c1 [Compound 310, 1-[[3-[(6R)-21,22-difluoro-3,6,10,10-tetramethyl-12,12,24,24-tetraoxo-12λ6,24λ6-dithia-3,4,19,28,30-pentazapentacyclo[23.3.1.12,5.015,23.016,20]triaconta-1(29),2(30),4,15,17,20,22,25,27-nonaen-6-yl]phenyl]methyl]cyclopropanecarboxylic acid]",A (an ΔTagg value less than or equal to 5 °C is marked “A”)
7,"Cn1nc2nc1-c1cc(ccn1)Cc1c(F)cc3[nH]ccc3c1CCS(=O)(=O)CC(C)(C)CCC[C@]2(C)c1cccc(C[C@@H](O)CO)c1 [Compound 311, (2R)-3-[3-[(6R)-22-Fluoro-3,6,10,10-tetramethyl-12,12-dioxo-12λ6-thia-3,4,19,28,30-pentazapentacyclo[23.3.1.12,5.015,23.016,20]triaconta-1(29),2(30),4,15,17,20,22,25,27-nonaen-6-yl]phenyl]propane-1,2-diol]",A (an ΔTagg value less than or equal to 5 °C is marked “A”)
8,"Cn1nc2nc1-c1cc(ccn1)Cc1c(F)cc3[nH]ccc3c1CCS(=O)(=O)CC(C)(C)CCC[C@]2(C)c1cccc(C[C@H](O)CO)c1 [Compound 312, (2S)-3-[3-[(6R)-22-Fluoro-3,6,10,10-tetramethyl-12,12-dioxo-12λ6-thia-3,4,19,28,30-pentazapentacyclo[23.3.1.12,5.015,23.016,20]triaconta-1(29),2(30),4,15,17,20,22,25,27-nonaen-6-yl]phenyl]propane-1,2-diol]",A (an ΔTagg value less than or equal to 5 °C is marked “A”)
9,"Cn1nc2nc1-c1cc(ccn1)Cc1c(F)cc3[nH]ccc3c1CCS(=O)(=O)CC(C)(C)CCC[C@]2(C)c1cccc(CC2(C(=O)O)CC2)c1 [Compound 313, 1-[[3-[(6R)-22-Fluoro-3,6,10,10-tetramethyl-12,12-dioxo-12λ6-thia-3,4,19,28,30-pentazapentacyclo[23.3.1.12,5.015,23.016,20]triaconta-1(29),2(30),4,15,17,20,22,25,27-nonaen-6-yl]phenyl]methyl]cyclopropanecarboxylic acid]",B (a value above 5 °C and less than or equal to 10 °C is marked “B”)
10,"C[C@@H](Cc1cccc(C2(C)CCCC(C)(C)CS(=O)(=O)CCc3c(c(F)cc4[nH]ccc34)S(=O)(=O)c3ccnc(c3)-c3nc2nn3C)n1)C(=O)O (stereo partly drawn) [Compound 315E, (2S)-3-[6-(22-fluoro-3,6,10,10-tetramethyl-12,12,24,24-tetraoxo-12λ6,24λ6-dithia-3,4,19,28,30-pentazapentacyclo[23.3.1.12,5.015,23.016,20]triaconta-1(29),2(30),4,15,17,20,22,25,27-nonaen-6-yl)-2-pyridyl]-2-methyl-propanoic Acid]",A (an ΔTagg value less than or equal to 5 °C is marked “A”)
11,"C[C@H](Cc1cccc([C@@]2(C)CCCC(C)(C)CS(=O)(=O)CCc3c(c(F)c(F)c4[nH]ccc34)S(=O)(=O)c3ccc(F)c(c3)-c3nc2nn3C)c1)C(=O)O [Compound 320, (2R)-2-Methyl-3-[3-[(6R)-21,22,28-trifluoro-3,6,10,10-tetramethyl-12,12,24,24-tetraoxo-12λ6,24λ6-dithia-3,4,19,30-tetrazapentacyclo[23.3.1.12,5.015,23.016,20]triaconta-1(29),2(30),4,15,17,20,22,25,27-nonaen-6-yl]phenyl]propanoic acid]",B (a value above 5 °C and less than or equal to 10 °C is marked “B”)
12,"Cc1c[nH]c2c(F)c(F)c3c(c12)CCS(=O)(=O)CC(C)(C)CCC[C@](C)(c1cccc(C[C@@H](C)C(=O)O)c1)c1nc(n(C)n1)-c1cc(ccc1F)O3 [Compound 321, (2R)-2-Methyl-3-[3-[(6R)-21,22,28-trifluoro-3,6,10,10,17-pentamethyl-12,12-dioxo-24-oxa-12λ6-thia-3,4,19,30-tetrazapentacyclo[23.3.1.12,5.015,23.016,20]triaconta-1(29),2(30),4,15,17,20,22,25,27-nonaen-6-yl]phenyl]propanoic Acid]",A (an ΔTagg value less than or equal to 5 °C is marked “A”)
13,"C[C@H](Cc1cccc([C@@]2(C)CCCC(C)(C)CS(=O)(=O)CCc3c(c(F)c(F)c4[nH]cc(C#N)c34)Oc3ccc(F)c(c3)-c3nc2nn3C)c1)C(=O)O [Compound 322, (2R)-3-[3-[(6R)-17-Cyano-21,22,28-trifluoro-3,6,10,10-tetramethyl-12,12-dioxo-24-oxa-12λ6-thia-3,4,19,30-tetrazapentacyclo[23.3.1.12,5.015,23.016,20]triaconta-1(29),2(30),4,15,17,20,22,25,27-nonaen-6-yl]phenyl]-2-methyl-propanoic Acid]",B (a value above 5 °C and less than or equal to 10 °C is marked “B”)
14,"Cn1nc2nc1-c1cc(ccn1)Oc1c(F)c(F)c3[nH]ccc3c1CCS(=O)(=O)CC(C)(C)CCC[C@]2(C)c1cccc(CC(C)(C)C(=O)O)c1 [Compound 323, 3-[3-[(6R)-21,22-Difluoro-3,6,10,10-tetramethyl-12,12-dioxo-24-oxa-12λ6-thia-3,4,19,28,30-pentazapentacyclo[23.3.1.12,5.015,23.016,20]triaconta-1(29),2(30),4,15,17,20,22,25,27-nonaen-6-yl]phenyl]-2,2-dimethyl-propanoic Acid]",B (a value above 5 °C and less than or equal to 10 °C is marked “B”)
15,"Cn1nc2nc1-c1cc(ccc1F)Oc1c(F)c(F)c3[nH]ccc3c1CCS(=O)(=O)CC(C)(C)CCC[C@]2(C)c1cccc(CC(C)(C)C(=O)O)c1 [Compound 324, 2,2-Dimethyl-3-[3-[(6R)-21,22,28-trifluoro-3,6,10,10-tetramethyl-12,12-dioxo-24-oxa-12λ6-thia-3,4,19,30-tetrazapentacyclo[23.3.1.12,5.015,23.016,20]triaconta-1(29),2(30),4,15,17,20,22,25,27-nonaen-6-yl]phenyl]propanoic Acid]",B (a value above 5 °C and less than or equal to 10 °C is marked “B”)
16,"Cn1nc2nc1-c1cc(ccc1F)Sc1c(F)c(F)c3[nH]cc(CC(=O)O)c3c1CCS(=O)(=O)CC(C)(C)CCC[C@]2(C)c1ccccc1 [Compound 325, 2-[(6R)-21,22,28-Trifluoro-3,6,10,10-tetramethyl-12,12-dioxo-6-phenyl-12λ6,24-dithia-3,4,19,30-tetrazapentacyclo[23.3.1.12,5.015,23.016,20]triaconta-1(29),2(30),4,15,17,20,22,25,27-nonaen-17-yl]acetic Acid]",B (a value above 5 °C and less than or equal to 10 °C is marked “B”)
17,C[C@H](Cc1cccc([C@@]2(C)CCCC(C)(C)CS(=O)(=O)CCc3c(c(F)c(F)c4[nH]cc(Cl)c34)Oc3ccc(F)c(c3)-c3nc2nn3C)c1)C(=O)O [Compound 327],A (an ΔTagg value less than or equal to 5 °C is marked “A”)

# Source: patent US12649750B2, “Macrocyclic compounds, compositions, and methods of using thereof” (Sionna Therapeutics Inc., priority 2022, dated 2026)
